Source: patent US20220323429A1, “PIMAVANSERIN FOR TREATING NEURODEGENERATIVE DISEASES” (ACADIA Pharmaceuticals Inc., priority 2019, published 2022)

Test: In-use stability impurity analysis (HPLC) of pimavanserin 34 mg capsule contents in vehicles
Format: physicochemical
Conditions: for Impurity D / Impurity Unknown RRT 0.90 / Impurity Unknown RRT 0.99 / Impurity Unknown RRT 1.10 / Total Imp.: ambient
Procedure: Analytical HPLC Stability Study experiments (Example 1) were performed on Agilent 1200 Series, or equivalent; Waters XBridge C18 column, 5 μm 150×4.6 mm; mobile phase: Solvent A: 50 mM ammonium bicarbonate, pH 8.0; Solvent B: acetonitrile/methanol, 80:20 (v/v); Flow rate: 1 mL/min; Inj. Volume 20 μL; Autosampler Temp. 5° C.; column temperature: 40° C., detection UV at 210 nm; sample concentration (as free base) assay: 0.068 mg/mL, impurity: 0.68 mg/mL; standard concentration (as free base) 0.068 mg/mL; PLOQ Std. 0.05% of 0.68 mg/mL; SST solution, 1% of 0.68 mg/mL (impurities A, C, D, E, F, and G); diluent for standards 80/20 (v/v) ethanol/water; diluent for samples, ethanol; run time 40 min; gradient method: 0 min mobile phase A (90%) and mobile phase B (10%) to 30 min mobile phase A (0%), and mobile phase B (100%); then 30.1 min to 40 min mobile phase A (90%), mobile phase B (10%).
Samples for the assessment of the degradation products stability from solutions or mixtures of pimavanserin in vehicles were prepared as follows. Four samples (n=4) were prepared for each vehicle as follows.
For each sample, one capsule was weighed, and the content of each capsule was dropped into a 50 mL volumetric flask and the empty capsule shell was weighed and discarded. The specified amount of each vehicle was added as specified in Table 3, below.
The flasks were gently swirled to ensure the capsule contents were visually incorporated with the vehicle. The flasks were kept on the bench at ambient temperature for each time point: 2, 4, and 24 hours. Time 0 samples were processed immediately. At the specified time point a stir bar and approximately 45 mL of diluent were added to the flask. The solution was stirred vigorously for 2 hours, and the flask was left on the bench overnight. The next day the flasks were sonicated for approximately 30 minutes. The stir bar was removed and rinsed carefully with diluent into the flask, and the flask was diluted to volume with diluent and mixed well by inversion. An aliquot of each solution was centrifuged for 5 minutes at 10000 rpm. The supernatant was transferred to a HPLC vial, and injected for analysis.

For `CC(C)COc1ccc(CNC(=O)N(Cc2ccc(F)cc2)C2CCN(C)CC2)cc1` [Pimavanserin, N-(4-Fluorophenylmethyl)-N-(1-methylpiperidin-4-yl)-N′-(4-(2-methylpropyloxy)phenylmethyl)carbamide], the “Impurity D” value (Ensure 5 mL, T = 0) was 0.22 % w/w, the “Impurity Unknown RRT 0.90” value (Ensure 5 mL, T = 0) was 0.08 % w/w and the “Impurity Unknown RRT 0.99” value (Ensure 5 mL, T = 0) was 0.09 % w/w. For the same compound, the “Impurity Unknown RRT 1.10” value (Ensure 5 mL, T = 0) was 0.06 % w/w, the “Total Imp.” value (Ensure 5 mL, T = 0) was 0.45 % w/w and the “Impurity D” value (Ensure 5 mL, T = 2 h) was 0.20 % w/w. The “Impurity Unknown RRT 0.90” value (Ensure 5 mL, T = 2 h) was 0.08 % w/w, the “Impurity Unknown RRT 0.99” value (Ensure 5 mL, T = 2 h) was 0.10 % w/w and the “Impurity Unknown RRT 1.10” value (Ensure 5 mL, T = 2 h) was 0.05 % w/w. The “Total Imp.” value (Ensure 5 mL, T = 2 h) was 0.43 % w/w, the “Impurity D” value (Ensure 5 mL, T = 4 h) was 0.23 % w/w and the “Impurity Unknown RRT 0.90” value (Ensure 5 mL, T = 4 h) was 0.08 % w/w. The “Impurity Unknown RRT 0.99” value (Ensure 5 mL, T = 4 h) was 0.09 % w/w, the “Impurity Unknown RRT 1.10” value (Ensure 5 mL, T = 4 h) was 0.06 % w/w and the “Total Imp.” value (Ensure 5 mL, T = 4 h) was 0.46 % w/w. For the same compound, the “Impurity D” value (Ensure 5 mL, T = 24 h) was 0.23 % w/w, the “Impurity Unknown RRT 0.90” value (Ensure 5 mL, T = 24 h) was 0.07 % w/w and the “Impurity Unknown RRT 0.99” value (Ensure 5 mL, T = 24 h) was 0.10 % w/w. For the same compound, the “Impurity Unknown RRT 1.10” value (Ensure 5 mL, T = 24 h) was 0.06 % w/w, the “Total Imp.” value (Ensure 5 mL, T = 24 h) was 0.46 % w/w and the “change in impurity profile” value (any vehicle, over 24 hours at ambient room temperature) was “no significant change”. For the same compound, the “Impurity D” value (applesauce 5 g, T = 0) was 0.19 % w/w, the “Impurity Unknown RRT 0.99” value (applesauce 5 g, T = 0) was 0.09 % w/w and the “Total Imp.” value (applesauce 5 g, T = 0) was 0.28 % w/w. The “Impurity D” value (applesauce 5 g, T = 2 h) was 0.21 % w/w, the “Impurity Unknown RRT 0.99” value (applesauce 5 g, T = 2 h) was 0.10 % w/w and the “Total Imp.” value (applesauce 5 g, T = 2 h) was 0.31 % w/w. For the same compound, the “Impurity D” value (applesauce 5 g, T = 4 h) was 0.22 % w/w, the “Impurity Unknown RRT 0.99” value (applesauce 5 g, T = 4 h) was 0.10 % w/w and the “Total Imp.” value (applesauce 5 g, T = 4 h) was 0.32 % w/w. For the same compound, the “Impurity D” value (applesauce 5 g, T = 24 h) was 0.22 % w/w, the “Impurity Unknown RRT 0.99” value (applesauce 5 g, T = 24 h) was 0.09 % w/w and the “Total Imp.” value (applesauce 5 g, T = 24 h) was 0.31 % w/w. The “individual and total impurities across timepoints” value (each vehicle, 0-24 h) was “consistent between all timepoints”, the “Impurity D” value (orange juice 5 mL, T = 0) was 0.17 % w/w and the “Impurity Unknown RRT 0.99” value (orange juice 5 mL, T = 0) was 0.09 % w/w. For the same compound, the “Total Imp.” value (orange juice 5 mL, T = 0) was 0.26 % w/w, the “Impurity D” value (orange juice 5 mL, T = 2 h) was 0.17 % w/w and the “Impurity Unknown RRT 0.99” value (orange juice 5 mL, T = 2 h) was 0.09 % w/w. The “Total Imp.” value (orange juice 5 mL, T = 2 h) was 0.26 % w/w, the “Impurity D” value (orange juice 5 mL, T = 4 h) was 0.17 % w/w and the “Impurity Unknown RRT 0.99” value (orange juice 5 mL, T = 4 h) was 0.09 % w/w. The “Total Imp.” value (orange juice 5 mL, T = 4 h) was 0.26 % w/w, the “Impurity D” value (orange juice 5 mL, T = 24 h) was 0.17 % w/w and the “Impurity Unknown RRT 0.99” value (orange juice 5 mL, T = 24 h) was 0.09 % w/w. For the same compound, the “Total Imp.” value (orange juice 5 mL, T = 24 h) was 0.26 % w/w, the additional unknown impurities (two impurities, samples extracted from vanilla Ensure, time 0) was under 0.1% and the “Impurity D” value (water 5 mL, T = 0) was 0.23 % w/w. For the same compound, the “Impurity Unknown RRT 0.99” value (water 5 mL, T = 0) was 0.10 % w/w, the “Total Imp.” value (water 5 mL, T = 0) was 0.33 % w/w and the “Impurity D” value (water 5 mL, T = 2 h) was 0.24 % w/w. The “Impurity Unknown RRT 0.99” value (water 5 mL, T = 2 h) was 0.10 % w/w, the “Total Imp.” value (water 5 mL, T = 2 h) was 0.34 % w/w and the “Impurity D” value (water 5 mL, T = 4 h) was 0.23 % w/w. For the same compound, the “Impurity Unknown RRT 0.99” value (water 5 mL, T = 4 h) was 0.10 % w/w, the “Total Imp.” value (water 5 mL, T = 4 h) was 0.33 % w/w and the “Impurity D” value (water 5 mL, T = 24 h) was 0.25 % w/w. The “Impurity Unknown RRT 0.99” value (water 5 mL, T = 24 h) was 0.10 % w/w and the “Total Imp.” value (water 5 mL, T = 24 h) was 0.35 % w/w.
